Source: US20260130933A1, “PHARMACEUTICAL COMPOSITION FOR PREVENTION OR TREATMENT OF NEPHROPATHY AND/OR DIABETES MELLITUS, COMPRISING ENAVOGLIFLOZIN” (DAEWOONG PHARMACEUTICAL CO., LTD., priority 2022, published 2026)

Test: Example 1: phase 3 trial, enavogliflozin 0.3 mg once a day as monotherapy vs placebo for 24 weeks in patients with type 2 diabetes (HbA1c, FPG, C-peptide, body weight, lipids, blood pressure, HOMA, UACR, UGCR, adiponectin, leptin, safety)
Format: in vivo, human
Settings: for Change from baseline in HOMA-IR, ANCOVA LS mean difference / Change from baseline in HOMA-β, ANCOVA LS mean difference / Change from baseline in UACR, ANCOVA LS mean difference / Change from baseline in UGCR, ANCOVA LS mean difference / Change from baseline in adiponectin, ANCOVA LS mean difference / Change from baseline in leptin, ANCOVA LS mean difference: 0.3 mg vs placebo
Description: When a subject voluntarily gave written consent to participate in this clinical trial, a screening test was conducted. […] However, when the administration of a hypoglycemic agent was interrupted before the clinical trial Visit 1 (screening), at least an 8-week washout period, including the discontinuation period, was required, and during this period, a stable diet and exercise program was followed. Naïve patients were screened without a separate washout period, and the criteria for naïve patients were defined as patients who had not been administered hypoglycemic agents within 24 weeks prior to the date of obtaining written consent. […] In addition, they were instructed to maintain regular exercise and dietary control starting from 8 weeks prior to screening without changing their daily life patterns during the clinical trial period.

[1] = Week 18, LOCF, full analysis set, 0.3 mg
[2] = Week 18, LOCF, full analysis set
[3] = Week 24, LOCF, full analysis set, 0.3 mg
[4] = Week 24, LOCF, full analysis set

OC[C@H]1O[C@@H](c2cc(Cc3ccc(C4CC4)cc3)c(Cl)c3c2CCO3)[C@H](O)[C@@H](O)[C@@H]1O [Enavogliflozin, (2S,3R,4R,5S,6R)-2-(7-chloro-6 (4-cyclopropylbenzyl)-2,3-dihydrobenzofuran-4-yl)-6-(hydroxymethyl)tetrahydro-2H-pyran-3,4,5-triol]
Change from baseline in HOMA-IR, Median [1]: −1.10
Change from baseline in HOMA-β, ANCOVA LS mean (SE) [1]: 28.64
Change from baseline in HOMA-β, Mean (SD) [1]: 23.65
Change from baseline in HOMA-β, Median [1]: 5.95
Change from baseline in UACR, ANCOVA LS mean (SE) [1]: -5.53 g/kg
Change from baseline in UACR, Mean (SD) [1]: -8720 mg/kg
Change from baseline in UACR, Median [1]: -0.75 g/kg
Change from baseline in UGCR, ANCOVA LS mean (SE) [1]: 51.70 mg/mg
Change from baseline in UGCR, Mean (SD) [1]: 50.96 mg/mg
Change from baseline in UGCR, Median [1]: 54.29 mg/mg
Change from baseline in adiponectin, ANCOVA LS mean (SE) [1]: 0.97 µg/mL
Change from baseline in adiponectin, Mean (SD) [1]: 0.83 µg/mL
Change from baseline in adiponectin, Median [1]: 0.61 µg/mL
Change from baseline in leptin, ANCOVA LS mean (SE) [1]: -2.70 ng/mL
Change from baseline in leptin, Mean (SD) [1]: -2.20 ng/mL
Change from baseline in leptin, Median [1]: -1.21 ng/mL
HOMA-IR, Mean (SD) [1]: 1.99
HOMA-IR, Median [1]: 1.51
HOMA-β, Mean (SD) [1]: 70.05
HOMA-β, Median [1]: 43.85
Leptin, Mean (SD) [1]: 8.96 ng/mL
Leptin, Median [1]: 6.05 ng/mL
UACR, Mean (SD) [1]: 19480 mg/kg
UACR, Median [1]: 10.50 g/kg
UGCR, Mean (SD) [1]: 52.38 mg/mg
UGCR, Median [1]: 54.51 mg/mg
Change from baseline in HOMA-IR, ANCOVA LS mean difference [2]: −1.49
Change from baseline in HOMA-β, ANCOVA LS mean difference [2]: 22.40
Change from baseline in UACR, ANCOVA LS mean difference [2]: -13.39 g/kg
Change from baseline in UGCR, ANCOVA LS mean difference [2]: 47.66 mg/mg
Change from baseline in adiponectin, ANCOVA LS mean difference [2]: 1.04 µg/mL
Change from baseline in leptin, ANCOVA LS mean difference [2]: -2.36 ng/mL
Adiponectin, Mean (SD) [3]: 9.07 µg/mL
Adiponectin, Median [3]: 7.57 µg/mL
Change from baseline in HOMA-IR, ANCOVA LS mean (SE) [3]: −1.57
Change from baseline in HOMA-IR, Mean (SD) [3]: −1.52
Change from baseline in HOMA-IR, Median [3]: −0.99
Change from baseline in HOMA-β, ANCOVA LS mean (SE) [3]: 7.97
Change from baseline in HOMA-β, Mean (SD) [3]: 8.24
Change from baseline in HOMA-β, Median [3]: 6.10
Change from baseline in UACR, ANCOVA LS mean (SE) [3]: -4.31 g/kg
Change from baseline in UACR, Mean (SD) [3]: -6750 mg/kg
Change from baseline in UACR, Median [3]: -0.15 g/kg
Change from baseline in UGCR, ANCOVA LS mean (SE) [3]: 49.76 mg/mg
Change from baseline in UGCR, Mean (SD) [3]: 48.97 mg/mg
Change from baseline in UGCR, Median [3]: 50.09 mg/mg
Change from baseline in adiponectin, ANCOVA LS mean (SE) [3]: 1.25 µg/mL
Change from baseline in adiponectin, Mean (SD) [3]: 1.28 µg/mL
Change from baseline in adiponectin, Median [3]: 1.08 µg/mL
Change from baseline in leptin, ANCOVA LS mean (SE) [3]: -2.36 ng/mL
Change from baseline in leptin, Mean (SD) [3]: -2.07 ng/mL
Change from baseline in leptin, Median [3]: -0.84 ng/mL
HOMA-IR, Mean (SD) [3]: 1.94
HOMA-IR, Median [3]: 1.58
HOMA-β, Mean (SD) [3]: 54.64
HOMA-β, Median [3]: 46.65
Leptin, Mean (SD) [3]: 9.09 ng/mL
Leptin, Median [3]: 6.89 ng/mL
UACR, Mean (SD) [3]: 21440 mg/kg
UACR, Median [3]: 9.00 g/kg
UGCR, Mean (SD) [3]: 50.40 mg/mg
UGCR, Median [3]: 50.80 mg/mg
Change from baseline in HOMA-IR, ANCOVA LS mean difference [4]: −1.94
Change from baseline in HOMA-β, ANCOVA LS mean difference [4]: 5.88
Change from baseline in UACR, ANCOVA LS mean difference [4]: -13.92 g/kg
Change from baseline in UGCR, ANCOVA LS mean difference [4]: 47.36 mg/mg
Change from baseline in adiponectin, ANCOVA LS mean difference [4]: 0.98 µg/mL
Change from baseline in leptin, ANCOVA LS mean difference [4]: -2.99 ng/mL
Body weight, Mean (week 6): 66.81 kg
Diastolic blood pressure, Mean (week 6): 73.81 mmHg
FPG change from baseline, LS mean (SE) (week 6): −27.78(2.47) mg/dL
FPG change from baseline, Mean (SD) (week 6): −25.86(20.19) mg/dL
FPG, Mean (SD) (week 6): 115.19(14.55) mg/dL
HDL-C change from baseline, LS mean (week 6): 2.40 mg/dL
HDL-C change from baseline, Mean (week 6): 2.07 mg/dL
HDL-C, Mean (week 6): 53.79 mg/dL
HbA1c change from baseline, LS mean (SE) (week 6): −0.67(0.05) % p
HbA1c change from baseline, Mean (SD) (week 6): −0.63(0.39) % p
HbA1c, Mean (SD) (week 6): 7.01(0.59) %
LDL-C change from baseline, LS mean (week 6): 1.23 mg/dL
LDL-C change from baseline, Mean (week 6): 1.55 mg/dL
LDL-C, Mean (week 6): 96.18 mg/dL
Subjects achieving HbA1c target of <6.5% (week 6): 12(14.81) %
Subjects achieving HbA1c target of <7% (week 6): 40(49.38) %
Subjects achieving therapeutic glycemic response (HbA1c change >0.5% or HbA1c<7%) (week 6): 61(75.31) %
Systolic blood pressure, Mean (week 6): 123.32 mmHg
body weight change from baseline, LS mean (week 6): -2.03 kg
body weight change from baseline, Mean (week 6): -2.05 kg
diastolic blood pressure change from baseline, LS mean (week 6): −2.99 mmHg
diastolic blood pressure change from baseline, Mean (week 6): −2.65 mmHg
